Results from US9957271B2, “Substituted bicyclic aza-heterocycles and analogues as sirtuin modulators” (GlaxoSmithKline, LLC, priority 2012, dated 2018).

How the values were obtained:
[1] = target: T1, SIRT1 (Homo sapiens, UniProt Q96EB6); assay: Trp mass spectrometry assay of SIRT1 activity; format: biochemical; conditions: for Emax: read-out: Trp % Fold Act
T1 sequence (Q96EB6 1-747): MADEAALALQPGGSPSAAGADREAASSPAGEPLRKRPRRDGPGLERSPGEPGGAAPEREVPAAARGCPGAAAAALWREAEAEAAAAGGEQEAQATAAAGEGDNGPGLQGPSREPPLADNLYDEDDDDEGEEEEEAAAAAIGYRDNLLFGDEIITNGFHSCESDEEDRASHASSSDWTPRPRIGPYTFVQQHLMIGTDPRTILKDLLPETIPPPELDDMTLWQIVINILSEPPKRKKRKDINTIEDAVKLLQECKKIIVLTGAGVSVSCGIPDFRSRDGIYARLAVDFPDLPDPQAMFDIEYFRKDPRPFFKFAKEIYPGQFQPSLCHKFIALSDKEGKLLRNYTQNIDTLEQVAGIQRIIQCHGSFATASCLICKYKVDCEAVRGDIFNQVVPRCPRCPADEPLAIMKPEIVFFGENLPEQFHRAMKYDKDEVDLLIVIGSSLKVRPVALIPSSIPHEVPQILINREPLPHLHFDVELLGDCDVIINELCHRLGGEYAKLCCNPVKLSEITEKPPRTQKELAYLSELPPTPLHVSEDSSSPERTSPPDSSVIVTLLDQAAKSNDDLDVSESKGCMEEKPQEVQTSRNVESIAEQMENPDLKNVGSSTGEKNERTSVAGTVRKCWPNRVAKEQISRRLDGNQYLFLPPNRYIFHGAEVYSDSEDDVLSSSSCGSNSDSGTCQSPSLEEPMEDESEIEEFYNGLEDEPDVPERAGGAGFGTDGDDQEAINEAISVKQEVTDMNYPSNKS
Outline: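 His-tagged SIRT1 expressed in E. coli BL21(DE3), 10 nM, incubated 25 min at 25° C. with 0.5 μM Ac-RHKK(Ac)W-NH2 peptide and 120 μM βNAD+ in 50 mM HEPES pH 7.5, […], 1 mM DTT, 0.05% BSA; formic acid stop. OAADPR or deacetylated peptide measured by mass spectrometry; EC1.5 and percent maximum activation versus DMSO control.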

[2] = target: T1, SIRT1; assay: TAMRA based mass spectrometry assay of SIRT1 activity; format: biochemical; conditions: for Emax: read-out: TAMRA % Fold Act
Outline: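 Recombinant N-terminal His-tagged human SIRT1 (10 nM, E. coli) incubated 25 min at 25 °C with 0.5 μM 5TMR-labelled p53-derived acetyl-peptide and 120 μM βNAD+ in Tris-acetate pH 8 buffer with DTT and 0.05% BSA, compound at varying concentrations. Stopped with formic acid; deacetylated peptide or OAADPR measured by mass spectrometry relative to DMSO controls.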

[3] = Trp assay, concentration giving 150% activation of SIRT1
[4] = Trp assay, percent maximum fold activation
[5] = TAMRA assay, concentration giving 150% activation of SIRT1
[6] = TAMRA assay, percent maximum fold activation
[7] = Trp peptide substrate, concentration giving 150% activation of SIRT1
[8] = Trp peptide substrate, percent maximum fold activation
[9] = TAMRA peptide substrate, concentration giving 150% activation of SIRT1
[10] = TAMRA peptide substrate, percent maximum fold activation
[11] = concentration of test compound giving 150% activation of SIRT1, Trp peptide substrate
[12] = percent maximum fold activation of SIRT1, Trp peptide substrate
[13] = concentration of test compound giving 150% activation of SIRT1, TAMRA peptide substrate
[14] = percent maximum fold activation of SIRT1, TAMRA peptide substrate

Row | Compound | Trp EC1.5 (μM) [1, 3] | Emax [1, 4] | TAMRA EC1.5 (μM) [2, 5] | Emax [2, 6] | other results
1 | Cc1cccc(C(=O)Nc2cnn3ccc(-c4ccccc4OC(F)(F)F)nc23)n1 [Compound 725] | B (EC1.5 1-25 μM) | < 350% | A (EC1.5<1 μM) | ≥ 350% | –
2 | Cc1ccnc(C(=O)Nc2cnn3ccc(-c4ccccc4C(F)(F)F)nc23)c1 [Compound 523] | – | – | – | – | Trp EC1.5 [1, 7]: C (EC1.5>25 μM); Emax [1, 8]: < 350%; TAMRA EC1.5 [2, 9]: A (EC1.5<1 μM); Emax [2, 10]: ≥ 350%
3 | Cc1nn2ccc(-c3ccccc3C(F)(F)F)nc2c1C(=O)Nc1ccc(F)cn1 [Compound 686] | A (EC1.5<1 μM) | < 350% | A (EC1.5<1 μM) | ≥ 350% | –
4 | O=C(Nc1cccc(N2CCOCC2)n1)c1cnc2ccc(-c3ccc(F)c(F)c3F)nn12 [Compound 126] | – | – | – | – | Trp EC1.5 (μM) [1, 11]: B (EC1.5 1-25 μM); Emax [1, 12]: < 350%; TAMRA EC1.5 (μM) [2, 13]: A (EC1.5<1 μM); Emax [2, 14]: < 350%
5 | O=C(Nc1cnc(OCC(O)CO)cn1)c1cnc2ccc(-c3ccccc3C(F)(F)F)nn12 (centres unmarked) [Compound 297] | B (EC1.5 1-25 μM) | < 350% | A (EC1.5<1 μM) | ≥ 350% | –
6 | Cc1csc(NC(=O)c2cnc3ccc(-c4ccccc4C(F)(F)F)nn23)n1 [Compound 152] | – | – | – | – | Trp EC1.5 (μM) [1, 11]: A (EC1.5<1 μM); Emax [1, 12]: ≥ 350%; TAMRA EC1.5 (μM) [2, 13]: A (EC1.5<1 μM); Emax [2, 14]: ≥ 350%
7 | CCNc1cccc(NC(=O)c2cnc3ccc(-c4ccccc4F)nn23)n1 [Compound 327] | A (EC1.5<1 μM) | < 350% | A (EC1.5<1 μM) | ≥ 350% | –
8 | Cc1cc(C)nc(C(=O)Nc2cnn3ccc(-c4ccccc4OC(F)(F)F)nc23)n1 [Compound 736] | C (EC1.5>25 μM) | < 350% | A (EC1.5<1 μM) | ≥ 350% | –
9 | Cc1nc2c(OC[C@H](O)CO)cc(-c3ccccc3C(F)(F)F)nn2c1C(=O)Nc1cccnn1 [Compound 773, (R)-8-(2,3-dihydroxypropoxy)-2-methyl-N-(pyridazin-3-yl)-6-(2-(trifluoromethyl)phenyl)imidazo[1,2-b]pyridazine-3-carboxamide] | A (EC1.5<1 μM) | ≥ 350% | A (EC1.5<1 μM) | ≥ 350% | –
10 | O=C(Nc1ccccn1)c1cnn2ccc(-c3ccccc3OC(F)(F)F)nc12 [Compound 529] | – | – | – | – | Trp EC1.5 [1, 7]: A (EC1.5<1 μM); Emax [1, 8]: < 350%; TAMRA EC1.5 [2, 9]: A (EC1.5<1 μM); Emax [2, 10]: ≥ 350%
11 | O=C(Nc1cccnc1)c1cnn2ccc(-c3ccccc3OC(F)(F)F)nc12 [Compound 530] | – | – | – | – | Trp EC1.5 [1, 7]: A (EC1.5<1 μM); Emax [1, 8]: ≥ 350%; TAMRA EC1.5 [2, 9]: A (EC1.5<1 μM); Emax [2, 10]: ≥ 350%
12 | O=C(Nc1cnc2ccc(-c3ccccc3C(F)(F)F)nn12)c1cscn1 [Compound 218] | B (EC1.5 1-25 μM) | < 350% | A (EC1.5<1 μM) | ≥ 350% | –
13 | Cc1ccc(C(=O)Nc2cnc3ccc(-c4ccccc4C(F)(F)F)nn23)cn1 [Compound 393] | C (EC1.5>25 μM) | < 350% | B (EC1.5 1-25 μM) | < 350% | –
14 | O=C(Nc1ccncc1F)c1cnc2ccc(-c3ccccc3OC[C@H](O)CO)nn12 [Compound 831] | B (EC1.5 1-25 μM) | < 350% | B (EC1.5 1-25 μM) | ≥ 350% | –
15 | O=C(Nc1cnn2ccc(-c3ccccc3OC(F)(F)F)nc12)c1ncccc1F [Compound 754] | B (EC1.5 1-25 μM) | < 350% | A (EC1.5<1 μM) | ≥ 350% | –
16 | O=C(Nc1ncccn1)c1cnn2ccc(-c3ccccc3C(F)(F)F)nc12 [Compound 266, N-(pyrimidin-2-yl)-5-(2-(trifluoromethyl)phenyl)pyrazolo[1,5-a]pyrimidine-3-carboxamide] | B (EC1.5 1-25 μM) | < 350% | B (EC1.5 1-25 μM) | ≥ 350% | –

Row | Compound | Trp EC1.5 (μM) [1, 3] | Emax [1, 4] | TAMRA EC1.5 (μM) [2, 5] | Emax [2, 6] | other results
17 | Cc1nc2c(C)cc(-c3ccccc3C(F)(F)F)nn2c1C(=O)Nc1ccnc(C(C)C)n1 [Compound 730] | A (EC1.5<1 μM) | ≥ 350% | A (EC1.5<1 μM) | ≥ 350% | –
18 | O=C(Nc1cnc2ccc(-c3ccccc3Cl)nn12)c1ncccn1 [Compound 290] | C (EC1.5>25 μM) | < 350% | B (EC1.5 1-25 μM) | ≥ 350% | –
19 | O=C(Nc1cccnc1)c1cnc2ccc(-c3cccc(F)c3Cl)nn12 [Compound 183] | – | – | – | – | Trp EC1.5 (μM) [1, 11]: C (EC1.5>25 μM); Emax [1, 12]: < 350%; TAMRA EC1.5 (μM) [2, 13]: B (EC1.5 1-25 μM); Emax [2, 14]: < 350%
20 | O=C(Nc1ncccn1)c1cnn2ccc(-c3ccccc3OC(F)(F)F)nc12 [Compound 559] | – | – | – | – | Trp EC1.5 [1, 7]: B (EC1.5 1-25 μM); Emax [1, 8]: ≥ 350%; TAMRA EC1.5 [2, 9]: B (EC1.5 1-25 μM); Emax [2, 10]: < 350%
21 | COc1cccc(C(=O)Nc2c(C)nc3c(C)cc(-c4ccccc4C(F)(F)F)nn23)n1 [Compound 589, N-(2,8-dimethyl-6-(2-(trifluoromethyl)phenyl)imidazo[1,2-b]pyridazin-3-yl)-6-methoxypicolinamide] | – | – | – | – | Trp EC1.5 [1, 7]: B (EC1.5 1-25 μM); Emax [1, 8]: < 350%; TAMRA EC1.5 [2, 9]: B (EC1.5 1-25 μM); Emax [2, 10]: ≥ 350%
22 | O=C(Nc1cnn2ccc(-c3ccccc3C(F)(F)F)nc12)c1ccccn1 [Compound 249] | B (EC1.5 1-25 μM) | < 350% | A (EC1.5<1 μM) | ≥ 350% | –
23 | Cc1nc2c(C)cc(-c3ccccc3OC(F)(F)F)nn2c1C(=O)Nc1cccc(N2CC3(COC3)C2)n1 [Compound 545] | – | – | – | – | Trp EC1.5 [1, 7]: A (EC1.5<1 μM); Emax [1, 8]: ≥ 350%; TAMRA EC1.5 [2, 9]: A (EC1.5<1 μM); Emax [2, 10]: ≥ 350%
24 | Cc1cnc(C(=O)Nc2cnn3ccc(-c4ccccc4OC(F)(F)F)nc23)s1 [Compound 782] | C (EC1.5>25 μM) | < 350% | A (EC1.5<1 μM) | ≥ 350% | –
25 | Cc1cc(C)c(NC(=O)c2cnc3ccc(-c4ccccc4C(F)(F)F)nn23)cn1 [Compound 125] | – | – | – | – | Trp EC1.5 (μM) [1, 11]: B (EC1.5 1-25 μM); Emax [1, 12]: < 350%; TAMRA EC1.5 (μM) [2, 13]: B (EC1.5 1-25 μM); Emax [2, 14]: < 350%
26 | Cc1cc(NC(=O)c2cnn3ccc(-c4ccccc4OC(F)(F)F)nc23)nc(C)n1 [Compound 659] | B (EC1.5 1-25 μM) | < 350% | A (EC1.5<1 μM) | ≥ 350% | –
27 | Cc1cccc(NC(=O)c2cnc3ccc(-c4ccccc4OC(F)(F)F)nn23)n1 [Compound 431] | – | – | – | – | Trp EC1.5 [1, 7]: B (EC1.5 1-25 μM); Emax [1, 8]: < 350%; TAMRA EC1.5 [2, 9]: A (EC1.5<1 μM); Emax [2, 10]: ≥ 350%
28 | Cc1cc(C)nc(C(=O)Nc2cnc3ccc(-c4ccccc4C(F)(F)F)nn23)n1 [Compound 221] | B (EC1.5 1-25 μM) | < 350% | A (EC1.5<1 μM) | ≥ 350% | –
29 | CC(C)c1nccc(C(=O)Nc2cnn3ccc(-c4ccccc4C(F)(F)F)nc23)n1 [Compound 796] | B (EC1.5 1-25 μM) | < 350% | A (EC1.5<1 μM) | ≥ 350% | –
30 | Cc1c(-c2ccccc2Cl)nn2c(NC(=O)c3cccc(N4CCCC4)n3)cnc2c1C [Compound 386] | B (EC1.5 1-25 μM) | < 350% | A (EC1.5<1 μM) | ≥ 350% | –
31 | Cc1cc(C)nc(NC(=O)c2cnc3ccc(-c4ccccc4C(F)(F)F)nn23)c1 [Compound 101] | – | – | – | – | Trp EC1.5 (μM) [1, 11]: B (EC1.5 1-25 μM); Emax [1, 12]: ≥ 350%; TAMRA EC1.5 (μM) [2, 13]: A (EC1.5<1 μM); Emax [2, 14]: ≥ 350%
32 | COc1nccc(NC(=O)c2cnn3ccc(-c4ccccc4OC(F)(F)F)nc23)n1 [Compound 797] | A (EC1.5<1 μM) | ≥ 350% | A (EC1.5<1 μM) | ≥ 350% | –
